Key:
[1] = system: patients with hemiplegia attributed to cerebrovascular disease (stroke) who developed RSD (shoulder-hand syndrome); experiment: Test of treatment of post-stroke RSD (Reference Example 1); type: in vivo, human
Experimental: EL was administered after the onset of RSD (shoulder-hand syndrome) in the same use and dose as in Example 1 to 11 patients with hemiplegia attributed to cerebrovascular disease (stroke) at Brunnstrom stage III or lower in either the upper limb or a finger on admission, who developed RSD (shoulder-hand syndrome). These patients were classified into a therapeutic administration group. On the other hand, the EL administration group of Example 1 was compared as a control (preventive administration group) with the therapeutic administration group.

[2] = system: patients with hemiplegia attributed to cerebrovascular disease (stroke) at Brunnstrom stage III or lower, not yet developing RSD; experiment: Test of prevention of onset of post-stroke RSD (Example 1); type: in vivo, human
Text: Test subjects were 32 patients with hemiplegia attributed to cerebrovascular disease (stroke) at Brunnstrom stage III or lower in either the upper limb or a finger on admission. Patients already developing RSD (shoulder-hand syndrome) on admission and patients with pain in the shoulder joint or swollen paralyzed limbs were excluded from the test. […] On the other hand, 21 test subjects were classified into a rehabilitation alone group (control group) and compared with the EL administration group. Physical therapy and therapeutic exercise, occupational therapy, and the management of the paralyzed limbs were performed thoroughly in all the cases. […] EL administration was initiated 11 to 59 days after an attack of stroke (25.8 days on average) and continued until 5 months after the attack of stroke. The same observation period was applied to the control group. The test subjects were diagnosed as developing RSD (shoulder-hand syndrome) if they had diffuse pain not localized to the shoulder joint, edema involving skin color changes, skin temperature abnormalities, and range of motion limitations, and the practice of their rehabilitation was restricted. These criteria agreed to Veldman's diagnostic criteria or diagnostic criteria for CRPS-type 1 provided by the International Association for the Study of Pain.
Activities of daily living (ADL) were evaluated on the basis of the Barthel Index (BI) and the range of motion (ROM) of shoulder joint. The movable range of shoulder joint (also referred to as “shoulder ROM”) was regarded as restricted (Shoulder-ROM-restrictions were present.) if either abduction or flexion was restricted in measurement. The test subjects were also examined for sensory impairment, aphasia, and unilateral spatial neglect on admission.
Statistical analysis was conducted with unpaired t-test, Fisher's exact test or Wilcoxon test, and 5% or lower significance level was regarded as being significant.

[3] = system: RSD triggered and developed by a trauma or surgical invasion; conditions: literature report; cited from earlier work
[4] = therapeutic administration group
[5] = EL preventive administration group, 20 units i.m. once a week, until 5 months after the attack of stroke
[6] = preventive administration group

| Compound | Barthel index, Average ± SE (at completion of administration) [1, 4] | Barthel index, Median (at completion of administration) [1, 4] | No RSD, the number of persons (at completion of administration) ([1]; therapeutic administration group (EL after onset of RSD)) | Incidence of RSD converted to incidence in all patients with hemiplegia attributed to stroke in the facility ([2]; EL administration group) | Incidence of RSD (cases that developed RSD) ([2]; EL preventive administration group, 1 of the 12 cases) | The number of test subjects developing post-stroke RSD: Developed [2, 5] | The number of test subjects developing post-stroke RSD: Not developed [2, 5] | Incidence of RSD when EL administration was initiated within 48 days after stroke ([2]; administration initiated within 48 days after stroke) | Barthel index, Average ± SE (at completion of administration) [2, 6] | Barthel index, Median (at completion of administration) [2, 6] | No RSD, the number of persons (at completion of administration) [2, 6] | Effect on the initial onset of RSD in subjects having no anamnesis of RSD after a trauma or surgical invasion [3] |
| --- | --- | --- | --- | --- | --- | --- | --- | --- | --- | --- | --- | --- |
| 1-butyric acid-7-(L-2-aminobutyric acid)-26-L-aspartic acid-27-L-valine-29-L-alanine-calcitonin [elcatonin] | 31.8 ± 7.8 | 25 | 0 | approximately 1.3% | 8.3% | 1 | 11 | 0% | 60.8 ± 9.3 | 72.5 | 11 | – |
| O=C1O[C@H]([C@@H](O)CO)C(O)=C1O [vitamin C] | – | – | – | – | – | – | – | – | – | – | – | preventive effect |

— patent US20080090767A1, “Agent for prophylaxis of reflex sympathetic dystrophy after cerebral apoplexy” (Asahi Kasei Pharma Corporation, priority 2006, published 2008)
